The source made the active and inactive calls. The rule behind the calls is not given here.
Legend:
Format in all cases: functional, organism-based
Bacillus subtilis [1] = experiment: Antibacterial activity against Bacillus subtilis ATCC 6633 at 0.1 mg/ml by agar plate method
Enterococcus faecalis [2] = experiment: Antibacterial activity against Streptococcus faecalis at 0.1 mg/ml by agar plate method
[3] = system: Mycobacterium tuberculosis; experiment: Antimycobacterial activity against Mycobacterium tuberculosis H37Rv at 0.1 mg/ml by rapid radiometric method
Staphylococcus aureus [4] = experiment: Antibacterial activity against Staphylococcus aureus ATCC 25923 at 0.1 mg/ml by agar plate method
Bacillus pumilus [5] = experiment: Antibacterial activity against Bacillus pumilus ATCC 27142 at 0.1 mg/ml by agar plate method
[6] = system: Mycobacterium tuberculosis; experiment: Antimycobacterial activity against Mycobacterium tuberculosis H37Rv at 0.006 mg/ml by rapid radiometric method
Pseudomonas aeruginosa = experiment: Antibacterial activity against Pseudomonas aeruginosa ATCC 27853 at 0.05 mg/ml by agar plate method
[7] = system: Mycobacterium tuberculosis; experiment: Antimycobacterial activity against Mycobacterium tuberculosis H37Rv at 0.004 mg/ml by rapid radiometric method
Pantoea agglomerans = experiment: Antibacterial activity against Pantoea agglomerans ATCC 27155 at 0.01 mg/ml by agar plate method
Enterococcus faecalis [8] = experiment: Antibacterial activity against Streptococcus faecalis at 0.01 mg/ml by agar plate method
Bacillus cereus = experiment: Antibacterial activity against Bacillus cereus at 0.01 mg/ml by agar plate method
Serratia marcescens = experiment: Antibacterial activity against Serratia marcescens ATCC 13880 at 0.1 mg/ml by agar plate method
Enterobacter cloacae = experiment: Antibacterial activity against Enterobacter cloacae ATCC 13047 at 0.01 mg/ml by agar plate method
Bacillus pumilus [9] = experiment: Antibacterial activity against Bacillus pumilus ATCC 27142 at 0.01 mg/ml by agar plate method
Escherichia coli = experiment: Antibacterial activity against Escherichia coli ATCC 25922 at 0.01 mg/ml by agar plate method
Staphylococcus aureus [10] = experiment: Antibacterial activity against Staphylococcus aureus ATCC 25923 at 0.01 mg/ml by agar plate method
Klebsiella pneumoniae = experiment: Antibacterial activity against Klebsiella pneumoniae ATCC 10031 at 0.01 mg/ml by agar plate method
Bacillus subtilis [11] = experiment: Antibacterial activity against Bacillus subtilis ATCC 6633 at 0.01 mg/ml by agar plate method

In the case of `Cc1cc(O)c2c(c1)[C@H](O)CCC2=O`, the Activity (Bacillus subtilis [1]) is reported as “Active”, the Activity (Enterococcus faecalis [2]) is reported as “Active” and the Activity [3] is reported as “Active”. For the same compound, the Activity (Staphylococcus aureus [4]) was “Active” and the Activity (Bacillus pumilus [5]) was “Active”.
For `CC[C@@H](CO)NCCN[C@@H](CC)CO`, the Activity [6] was “Active”.
With `CN[C@@H]1[C@H](O[C@H]2[C@H](O[C@H]3[C@H](O)[C@@H](O)[C@H](N=C(N)N)[C@@H](O)[C@@H]3N=C(N)N)O[C@@H](C)[C@]2(O)C=O)O[C@@H](CO)[C@H](O)[C@H]1O` the Activity (Pseudomonas aeruginosa) was “Active”, the Activity [7] was “Active” and the Activity (Pantoea agglomerans) was “Active”. The Activity (Enterococcus faecalis [8]) was “Active”, the Activity (Bacillus cereus) was “Active” and the Activity (Serratia marcescens) was “Active”. For the same compound, the Activity (Enterobacter cloacae) was “Active”, the Activity (Bacillus pumilus [9]) was “Active” and the Activity (Escherichia coli) was “Active”. The Activity (Staphylococcus aureus [10]) was “Active”, the Activity (Klebsiella pneumoniae) was “Active” and the Activity (Bacillus subtilis [11]) was “Active”.
`Cc1cc(O)c2c(c1)C(=O)C[C@H](c1c(C)cc3c(c1O)C(=O)CCC3O)[C@@H]2O` (stereo not given in full) was tested, and the Activity (Bacillus pumilus [5]) was “inactive”.
For `C=C(C)[C@@H]1CC[C@]2(C)CC[C@]3(C)[C@@H](CC[C@@H]4[C@@]5(C)CC[C@H](OC(=O)/C=C/c6ccc(OC)c(O)c6)C(C)(C)[C@@H]5CC[C@]43C)[C@H]12`, the Activity (Bacillus pumilus [5]) was “Active”.

Reference: ChEMBL document CHEMBL1148958, “Antibacterial activity of naphthoquinones and triterpenoids from Euclea natalensis root bark” (J Nat Prod, 2004)
